Results taken from publication PMC7395068, “The evolution of strategies to minimise the risk of human drug-induced liver injury (DILI) in drug discovery and development” (Archives of Toxicology, 2020).

Tests used:
HepaRG cells = conditions: HepaRG cells, BMCs in relation to 10 × human Cmax.tot; ref National Toxicology Program; cited from earlier work
[1] = Total human plasma exposure Cmax.tot; format: in vivo; conditions: across literature references

difference in Cmax.tot values utilised across studies [1]	Compound	DILI identification by high-throughput transcriptomics (HepaRG cells)
	Cc1c(C)c2c(c(C)c1O)CCC(C)(COc1ccc(CC3SC(=O)NC3=O)cc1)O2 (centres unmarked) [troglitazone, reference compound]	identified
16.6 fold	CC(C)C(=O)Nc1ccc([N+](=O)[O-])c(C(F)(F)F)c1 [flutamide, reference compound]	
